US20020114787A1, “Tolerance to natural antibody antigens” (priority 1997, published 2002)

Columns and labels:
[1] = tested on: galactosyl α(1, 3) galactose-reactive natural antibodies in human serum; assay: Competitive ELISA with αGal/BSA or bovine thyroglobulin coated plates; type: binding
Procedure: In order to facilitate the detection of galactosyl α(1, 3) galactose-reactive antibodies in human serum samples, an ELISA system using αGal/BSA as the antigen was used. αGal/BSA (provided by BioTransplant, Inc.) was used to coat 96 well polystyrene plates (Costar) at a concentration of 10 μg/ml in PBS overnight at 4° C. Plates coated with BSA were included to control for background reactivity to BSA. Wells were blocked for 1-2 hours at room temperature with 1% BSA in TBS (100 mM Tris-HCl, pH 7.5, 0.9% NaCl). All plates were washed three times with 0.1% Tween-20 in TBS (TBS/Tween) using a Skatron plate washer (Skatron Instruments, Inc., Sterling, Va.). Serial dilutions of human serum from a single donor were used as the standard positive controls. XNA^− (see Example 3) was used as the negative control. Samples were aliquoted in triplicate and allowed to incubate at room temperature for 1 hour. After washing three times with TBS/Tween, the plates were incubated with alkaline phosphatase conjugated mouse monoclonal anti-human IgG or IgM antibody (Sigma Chemical Co., St. Louis, Mo.) for 1-2 hours at room temperature in the dark. The plates were washed and developed with Sigma 104 alkaline phosphatase substrate tablets in carbonate buffer (0.203 g MgCl2, 2.2 g Na2CO3, 2.43 g. NaHCO3 in 1 L. water). The amount of colored product was measured at 405 nm using the SLT Lab Instruments 340 ATC ELISA reader. For competitive ELISA, bovine thyroglobulin and αGal/BSA were serially diluted ten-fold in TBS to final concentrations of 1 mg/ml to 1 ng/ml. Equal volumes of human serum and competitor were combined and incubated for 1 hour at 4° C. The competition reactions were then aliquoted to antigen coated plates and incubated for 1 hour at room temperature. The plates were washed and incubated with alkaline phosphatase conjugated mouse monoclonal anti-human IgG or IgM antibody (Sigma Chemical Co., St. Louis, Mo.) for 1 hour at room temperature. The wells were washed and developed with Sigma 104 alkaline phosphatase substrate. All samples were analyzed in triplicate.

[2] = tested on: human natural antibodies (IgG, IgM) binding to porcine PBMC; assay: Competitive binding assay, flow cytometry: human natural antibody binding to porcine PBMC; conditions: human serum pre-incubated with competitor at 1 mg/ml
Procedure: FIG. 1 (Panels A, B, C, D) is a set of graphs which show α1,3Gal/BSA-inhibition of human natural antibody binding to pig cells. Human serum (20 μl) was preincubated with αGal/BSA (Panels A,C) or bovine thyroglobulin (Panels B,D) at concentrations of 1,000 μg/ml (b) or 0.1 μg/ml (c) prior to staining of porcine peripheral blood mononuclear cells (pPBMCs). The negative control (a) consisted of pPBMC plus an equivalent volume of galactosyl α(1, 3) galactose reactive natural antibody-depleted human serum (XNA^−) while the positive control was 20 μl human serum without competitor (d). Following incubation with the human serum, the cells were stained with either anti-human IgG (Panels A,B) or anti-human IgM (Panels C,D).
Human sera were obtained from healthy adult volunteers. Individual samples were isolated and stored at 4° C. for short periods or aliquoted and stored at −70° C. Porcine peripheral blood mononuclear cells (pPBMC) were isolated from heparinized whole blood obtained from an inbred miniature swine herd and resuspended in flow cytometric analysis staining buffer (Hank's Buffered Saline Solution (HBSS), 2.0% fetal calf serum, 0.04% sodium azide (Sigma Chemical Co., St. Louis, Mo.)) to a final concentration of 1×10^7 pPBMC/ml.
Human serum (15 μl) was pre-incubated with serially diluted αGal/BSA, bovine thyroglobulin (Sigma Chemical Co., St. Louis, Mo.) or BSA (Fisher Scientific, Pittsburgh, Pa.) at final concentrations of 1 mg/ml to 1 ng/ml for 90 minutes at 4° C. with gentle rocking. Fifty μl of pPBMC (5×10^5 cells) was incubated with 50 μl of human serum plus competitor for 90 minutes at 4° C. The positive control consisted of staining with human serum alone and the negative control was human serum depleted of natural antibodies (XNA^−). The cells were processed for all subsequent steps in the same way as for direct flow cytometric analysis (DerSimonian, H. M. et al. (1993) J. Exp. Med. 177:1623).

[3] = tested on: natural antibody function; assay: Pig to cynomolgus kidney transplants; type: in vivo; conditions: 6 mg/kg/day, i.v.
Source text: As is discussed herein, contacting the recipient's blood with galactosyl (α1, 3) galactose epitopes can be used to deplete the host of natural antibodies. Other methods for depleting or otherwise inactivating natural antibodies can be used with any of the methods described herein. For example, drugs which inactivate natural antibodies, e.g., deoxyspergualin (DSG) (Bristol), or anti-IgM antibodies, can be administered to the recipient of an allograft or a xenograft. One or more of, DSG (or similar drugs), anti-IgM antibodies, and hemoperfusion, can be used to inactivate recipient natural antibodies in methods of the invention.

[4] = Stability of αGal/BSA in the ELISA system in the presence of human serum; type: physicochemical; conditions: 37° C. for up to 24 hours
Procedure: To ensure that the galactosyl α(1, 3) galactose epitope was stable under these conditions, experiments were performed to determine if there was any detectable hydrolysis of the galactosyl α(1, 3) galactose carbohydrate moiety in the presence of human serum.

With “Bovine thyroglobulin: galactosyl α(1, 3) galactose containing molecule, estimated eleven naturally occurring residues, 300 kD (Sigma)” the “concentration necessary to block binding of αGal-reactive natural antibodies to αGal/BSA” value ([1]; competitive ELISA, αGal/BSA as antigen) was 100-1,000 μg/ml, the “inhibition of binding of serum natural antibodies to αGal/BSA” value ([1]; pre-incubation of serum with competitor) was “completely inhibited” and the “decrease in IgG binding to pig cells (median fluorescence intensity)” value [2] was 79%. The “reduction of IgM binding to pig cells (median fluorescence intensity)” value [2] was 66%.
With N=C(N)NCCCCCCC(=O)NC(O)C(=O)NCCCCNCCCN (stereo not drawn) [DSG, deoxyspergualin] the “suppression of natural antibody function” value [3] was “useful in suppressing natural antibody function”.
For “αGal/BSA: synthetic conjugate with fifteen to thirty-nine αGal moieties per BSA molecule, 70 kD”, the “concentration that completely inhibited binding of human IgG and IgM to bovine thyroglobulin” value ([1]; competitive ELISA, bovine thyroglobulin as antigen) was 1 µg/mL, the “decrease in IgG binding to pig cells (median fluorescence intensity)” value [2] was 84% and the “reduction of IgM binding to pig cells (median fluorescence intensity)” value [2] was 94%. For the same molecule, the “stability (hydrolysis of the galactosyl α(1, 3) galactose moiety) in the ELISA system” value [4] was “stable”.
